Measured values reported in paper PMC4316997, “Complex Structure and Biochemical Characterization of the Staphylococcus aureus Cyclic Diadenylate Monophosphate (c-di-AMP)-binding Protein PstA, the Founding Member of a New Signal Transduction Protein Family” (The Journal of Biological Chemistry, 2014).

Legend:
[1] = biological target: T1, PstA (PstASA, His-PstASA) (Staphylococcus aureus, UniProt A0A0H2XH20, R67A); assay: biochemical
T1 construct: gene SAUSA300_0460

[2] = biological target: T2, PstA (PstASA, His-PstASA) (Staphylococcus aureus, UniProt A0A0H2XH20, T43A); assay: biochemical
T2 construct: gene SAUSA300_0460

[3] = biological target: T3, PstA (PstASA, His-PstASA) (Staphylococcus aureus, UniProt A0A0H2XH20, D12A); assay: biochemical
T3 construct: gene SAUSA300_0460

[4] = biological target: T4, PstA (PstASA, His-PstASA) (Staphylococcus aureus, UniProt A0A0H2XH20); assay: DRaCALA, purified protein, […]-labelled ligand on nitrocellulose; assay type: binding
T4 construct: gene SAUSA300_0460; sites at monomer-monomer interfaces

[5] = biological target: T5, PstA (PstASA, His-PstASA) (Staphylococcus aureus, UniProt A0A0H2XH20, K2A); assay: biochemical
T5 construct: gene SAUSA300_0460

[6] = biological target: T6, PstA (PstASA, His-PstASA) (Staphylococcus aureus, UniProt A0A0H2XH20, N41A); assay: biochemical
T6 construct: gene SAUSA300_0460

[7] = biological target: N-terminally His-tagged PstA protein from S. aureus (His-PstASA) (S. aureus); assay: SEC-MALS; 100 uM purified His-PstASA in 50 mM Tris-HCl pH 7.5, 200 mM NaCl, 5% glycerol; Superdex 10/300 column coupled to a multiangle laser light scattering detector

Molecule: Nc1ncnc2c1ncn2[C@@H]1O[C@@H]2COP(=O)(O)O[C@H]3[C@@H](O)[C@H](n4cnc5c(N)ncnc54)O[C@@H]3COP(=O)(O)O[C@H]2[C@H]1O [c-di-AMP]
- Kd [1]: 480 ± 40 nM
- Kd [2]: 1800 ± 200 nM
- Kd [3]: 320 ± 50 nM
- Kd [4]: 370 ± 30 nM
- Kd [5]: 340 ± 40 nM
- Kd [6]: 9600 ± 2300 nM

Molecule: N-terminally His-tagged PstA protein from S. aureus (His-PstASA) (natural protein)
- stoichiometry N [7]: 3
